Series [1] deals with Daoy. Kind of series: Antitumor activity against human Daoy cells assessed as inhibition of cell proliferation. The series is classed as functional, cell-based.
Series [2] concerns D283 Med. The series can be described thus: Antitumor activity against human D283 Med cells assessed as inhibition of cell proliferation. The class given is functional, cell-based.
The test system of series [3] is Daoy. Kind of series: Antiproliferative activity against human Daoy cells assessed as inhibition of cell proliferation measured after 4 days by WST-1 assay. The class given is functional, cell-based. As to conditions: 96 h. (Formazan colour is commonly taken as a measure of viable cells.)
Series [4] is described as follows: Antiproliferative activity against human D556 Med cells assessed as inhibition of cell proliferation measured after 4 days by WST-1 assay. The series is classed as functional, cell-based. To be noted: 96 h.
The nature of series [5]: Antitumor activity against human HD-MB03 cells assessed as inhibition of cell growth incubated for 72 hrs by CellTiter-Glo luminescent assay. The series is classed as functional. (In general: Cellular ATP, detected with luciferase, serves as a proxy for viable cell number.)
Series [6] deals with Daoy. Kind of series: Antitumor activity against human Daoy cells assessed as inhibition of cell growth incubated for 72 hrs by CellTiter-Glo luminescent assay. The series is classed as functional.
Series [7] concerns ONS-76. Kind of series: Antitumor activity against human ONS-76 cells assessed as inhibition of cell growth incubated for 72 hrs by CellTiter-Glo luminescent assay. The series is classed as functional.
Series [8] is described as follows: Antitumor activity against human UW228 cells assessed as inhibition of cell growth incubated for 72 hrs by CellTiter-Glo luminescent assay. The series is classed as functional.
Series [9] is described as follows: Cytotoxicity against human D384 Med cells assessed as reduction in cell viability incubated for 48 hrs by Cell TiterGlo luminescent assay. The class given is functional, cell-based. To be noted: pooled result: one value given for 10 cell lines, strains, targets or settings.
Series [10] has as its system Daoy. Kind of series: Antiproliferative activity against human Daoy cells assessed as reduction in cell viability incubated for 48 hrs by MTT assay. The class given is functional, cell-based.
In series [11] the test system is D283 Med. Kind of series: Antiproliferative activity against human D283 Med cells assessed as reduction in cell viability incubated for 48 hrs by MTT assay. The class given is functional, cell-based.
Series [12] relates to Daoy. Kind of series: Antiproliferative activity against human Daoy cells assessed as inhibition of cell growth incubated for 24 to 96 hrs by MTT assay. The series is classed as functional. As to conditions: time 24-96 hrs.
Series [13] has as its system ONS-76. The series can be described thus: Antiproliferative activity against human ONS-76 cells assessed as inhibition of cell growth incubated for 24 to 96 hrs by MTT assay. To be noted: time 24-96 hrs. The series is classed as functional.
Series [14] addresses T1, Protein smoothened (Homo sapiens, UniProt Q99835, D473H). The series can be described thus: Antagonist activity at resistant Smo D473H mutant (unknown origin) expressed in mouse C3H 10T1/2 cells cotransfected with Gli reporter gene assessed as Gli luciferase activity incubated for 24 hrs by dual luciferase assay. The class given is functional, cell-based.
Series [15] in a line: Ratio of AUC (0 to infinity) in brain to plasma of C57BL mouse at 20 mg/kg, iv by HPLC/MS/MS method. The series is classed as ADME, organism-based. As to conditions: brain and plasma, read-out: Ratio AUC.
Series [16] is described as follows: Cytotoxicity against human D425 Med cells expressing Glt1-tTA:TRE-MYCN/Luc (GTML) assessed as reduction in cell viability incubated for 72 hrs by Resazurin assay. The series is classed as functional, cell-based.
In series [17] the test system is Daoy. Kind of series: Antiproliferative activity against human Daoy cells assessed as inhibition of cell growth incubated for 72 hrs by Alamar blue dye based fluorescence spectrophotometric assay. The series is classed as functional.
Series [18] is described as follows: Antiproliferative activity against human pateint derived Medulloblastoma cells assessed as inhibition of cell growth incubated for 72 hrs by Alamar blue dye based fluorescence spectrophotometric assay. The class given is functional.
Series [19] can be described thus: Inhibition of hedgehog signalling in mouse NIH3T3 cells cotransfected with Gli/RE luciferase reporter gene assessed as Gli luciferase activity preincubated for 15 to 30 mins followed by ShhN stimulation and after 28 hrs by Steady-Glo reagent based luciferase assay. Background: A reporter such as luciferase makes a cellular process visible.
A short description of series [20]: Antitumor activity against human Med-211 FH cells xenografted in athymic nude mouse assessed as tumor regression at 75 mg/kg, po QD for 28 days. As to conditions: Med-211FH cell, 672 h, time 28 day, read-out: TGI. The series is classed as functional.
Series [21] can be described thus: Antitumor activity against human Med-1712FH cells xenografted in athymic nude mouse assessed as tumor regression at 75 mg/kg, po QD for 28 days. The series is classed as functional. As to conditions: Med-1712FH cell, 672 h, time 28 day, read-out: TGI.
A short description of series [22]: Anticancer activity against human UW228 cells assessed as reduction in cell viability incubated for 72 hrs by CCK assay. The series is classed as functional, cell-based. As to conditions: UW228, 72 h.
Series [23] in a line: Anticancer activity against human UW426 cells assessed as reduction in cell viability incubated for 72 hrs by CCK assay. The class given is functional, cell-based. As to conditions: UW426, 72 h.
Series [24] can be described thus: Anticancer activity against human MED-MEB-8A cells assessed as reduction in cell viability incubated for 72 hrs by CCK assay. The series is classed as functional, cell-based.
Series [25] can be described thus: Anticancer activity against mouse Ptch+/- MB21 cells assessed as reduction in cell viability incubated for 72 hrs by CellTiter-Glo luminescent assay. The series is classed as functional, cell-based.
Series [26] can be described thus: Anticancer activity against mouse Ptch+/- MB55 cells assessed as reduction in cell viability incubated for 72 hrs by CellTiter-Glo luminescent assay. The class given is functional, cell-based.
The nature of series [27]: Anticancer activity against mouse Ptch+/- Trp53-/- MB53 cells assessed as reduction in cell viability incubated for 72 hrs by CellTiter-Glo luminescent assay. The series is classed as functional, cell-based.
The target in series [28] is T1, Protein smoothened. The series can be described thus: Inhibition of Smo D473H mutant (unknown origin) expressed in mouse NIH3T3 cells cotransfected with Gli luciferase reporter gene assessed as Gli luciferase activity incubated for 48 hrs by Bright-Glo reagent based luciferase assay. The class given is cell-based.
Series [29] can be described thus: Inhibition of hedgehog signalling in mouse NIH3T3 cells cotransfected with Gli luciferase reporter gene assessed as Gli luciferase activity incubated for 48 hrs by Bright-Glo reagent based luciferase assay. The series is classed as cell-based. As to conditions: NIH3T3, 48 h.
In series [30] the test system is Daoy. Kind of series: Antitumor activity against human Daoy cells assessed as inhibition of cell proliferation incubated for 72 hrs by CellTiter-Glo luminescent assay. The series is classed as functional, cell-based.
The test system of series [31] is D283 Med. Kind of series: Antitumor activity against human D283 Med cells assessed as inhibition of cell proliferation incubated for 72 hrs by CellTiter-Glo luminescent assay. The series is classed as functional, cell-based.

A word on the IC50: it is the point on the concentration scale where inhibition reaches its midpoint. The term GI50 denotes the concentration at which growth is held to half of that of the control.

In brackets after ≈: the same amount, converted by molar mass.

T1 sequence (Q99835 28-787 D473H limits assumed): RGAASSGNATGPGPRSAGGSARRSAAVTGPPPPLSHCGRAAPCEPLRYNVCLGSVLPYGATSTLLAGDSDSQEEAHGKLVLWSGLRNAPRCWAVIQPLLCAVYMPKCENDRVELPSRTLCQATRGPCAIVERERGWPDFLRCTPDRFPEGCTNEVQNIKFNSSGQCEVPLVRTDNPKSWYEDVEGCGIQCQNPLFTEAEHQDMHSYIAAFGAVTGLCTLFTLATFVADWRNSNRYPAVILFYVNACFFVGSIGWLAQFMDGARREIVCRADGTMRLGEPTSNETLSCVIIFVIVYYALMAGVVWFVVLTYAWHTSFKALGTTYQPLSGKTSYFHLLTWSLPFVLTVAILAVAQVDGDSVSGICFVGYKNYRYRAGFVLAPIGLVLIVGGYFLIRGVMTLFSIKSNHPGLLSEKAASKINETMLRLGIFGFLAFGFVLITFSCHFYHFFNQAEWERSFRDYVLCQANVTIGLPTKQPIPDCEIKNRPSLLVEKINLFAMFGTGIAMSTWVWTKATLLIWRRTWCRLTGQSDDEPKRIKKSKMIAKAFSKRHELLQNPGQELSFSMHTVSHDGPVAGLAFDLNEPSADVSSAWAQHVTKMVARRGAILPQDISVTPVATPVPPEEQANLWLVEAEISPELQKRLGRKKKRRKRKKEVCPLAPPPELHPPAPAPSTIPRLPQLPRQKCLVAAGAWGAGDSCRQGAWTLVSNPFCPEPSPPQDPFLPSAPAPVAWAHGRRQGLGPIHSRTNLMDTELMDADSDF

As for `CCN1CCN(Cc2ccc(-c3cc4c(N[C@H](C)c5ccccc5)ncnc4[nH]3)cc2)CC1` [AEE-788], the IC50 turned out to be 1700 nM in the series with Daoy [1] and 3800 nM in the series with D283 Med [2].
Regarding `O=[As][As+](=O)[O-]` (stereo not drawn) [ARSENIC TRIOXIDE], the IC50 (in the series with Daoy [3]; in series [4]) was 400 nM in each case.
With `Cc1sc2c(c1C)C(c1ccc(Cl)cc1)=N[C@@H](CC(=O)Nc1ccc(O)cc1)c1nnc(C)n1-2` [BIRABRESIB], the GI50 (in series [5]; in the series on Daoy [6]; with ONS-76 [7]; in [8]) was 160 nM each time.
Consider `Nc1cc(C(F)(F)F)c(-c2cc(N3CCOCC3)nc(N3CCOCC3)n2)cn1` [BUPARLISIB], for which the IC50 in series [9] is 279 nM.
With `O=C(/C=C/c1ccc(CN(CCO)CCc2c[nH]c3ccccc23)cc1)NO` [DACINOSTAT], the IC50 in the series on Daoy [10] is below 100 nM; in the series with D283 Med [11], below 200 nM.
As for `CC1=C(/C=C/C(C)=C/C=C/C(C)=C/C(=O)Nc2ccc(O)cc2)C(C)(C)CCC1` [FENRETINIDE], the GI50 in the series with Daoy [12] turned out to be 5000 nM; in the series with ONS-76 [13], 2000 nM.
For `Cc1c(Cc2ccccc2)nnc(N2CCN(c3cnc(C(C)(C)O)cn3)[C@H](C)C2)c1C` [LEQ506], on Protein smoothened [14], the concentration for half-maximal inhibition (IC50) was 96 nM. The Kp in series [15] worked out at 0.69.
On to `CNC(=O)c1nn(C)c2c1C(C)(C)Cc1cnc(Nc3ccc(N4CCN(C)CC4)cc3)nc1-2` [MILCICLIB], for which the 50% inhibitory concentration (IC50) in [16] was found to be 940 nM.
In the case of `Cc1cn(-c2cc(NC(=O)c3ccc(C)c(Nc4nccc(-c5cccnc5)n4)c3)cc(C(F)(F)F)c2)cn1` [NILOTINIB], the IC50 with Daoy [17] is 6000 nM; in [18], 5000 nM; in [19], 374 nM.
`CC(=O)c1c(C)c2cnc(Nc3ccc(N4CCNCC4)cn3)nc2n(C2CCCC2)c1=O` [PALBOCICLIB]: the inhibition in vivo at 75 mg/kg in [20] and in series [21] was 63% each time.
On to `Cc1[nH]c2ccccc2c1CCNCc1ccc(/C=C/C(=O)NO)cc1` [PANOBINOSTAT], for which the IC50 in series [22] stood at 54 nM; in series [23], 67 nM; in series [24], 46 nM.
In the case of `Cn1cc(CNCC2CCN(c3ncc(C(=O)NO)cn3)CC2)c2ccccc21` [QUISINOSTAT], the IC50 in the series on Daoy [10] was below 100 nM; in the series with D283 Med [11], below 200 nM.
With `O=C(O)c1ccc2c(c1)nc(Nc1cccc(Cl)c1)c1ccncc12` [SILMITASERTIB], the IC50 in [25], in series [26] and in [27] was 2500 nM each time.
For `CCc1cc2c(c(OCC(F)(F)F)c(C(=O)NC3CCN(C(=O)CO)CC3)n2C)c(=O)n1CC(=O)c1ccccc1` [TAK-441], the values for the IC50 (on Protein smoothened [28]; in [29]) were 79 nM and 4.4 nM, respectively.
As to `Cc1c(Cl)cccc1Nc1ccccc1C(=O)O` [TOLFENAMIC ACID], the IC50 in the series with Daoy [30] came out at 21.6 µg/mL (≈ 82.5 µM); in the series with D283 Med [31] it was 20.8 µg/mL (≈ 79.5 µM).

These data come from ChEMBL document CHEMBL5096161, “Medulloblastoma drugs in development: Current leads, trials and drawbacks” (Eur J Med Chem, 2021).
